Results reported in patent US20240209011A1, “HETEROAROMATIC PHOSPHONIUM SALTS FOR TREATING CANCER” (FLORATEK PHARMA S.A., priority 2021, published 2024).
One block for each compound: values may come before it.

Columns and labels:
Type in all cases: cell-based
[1] = system: CHP-134; assay: Cell viability assay (CellTiter-Blue/CellTiter-Glow); settings: Homo sapiens; brain carcinoma cell line CHP-134; absolute IC50; 72 h
Summary of the method: (§1)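 Compounds ran at 5 or 6 half-log steps from a highest concentration of 30 μM or 100 μM, with DMSO held below 0.3% v/v. Exposure lasted 72 h on cells pre-plated for 24 h in 10% FCS medium. Values are absolute IC50 at T/C=50%.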

[2] = system: U-118; assay: as above; settings: brain carcinoma cell line U-118; absolute IC50; 72 h
Summary of the method: as §1

[3] = system: U-251; assay: as above; settings: Homo sapiens; brain carcinoma cell line U-251; absolute IC50; 72 h
Summary of the method: as §1

[4] = system: OVXF 899; assay: as above; settings: ovarian carcinoma cell line OVXF 899; absolute IC50; 72 h
Summary of the method: as §1

[5] = system: parental H69 cells; assay: as above; settings: Homo sapiens, NCI-H69; SCLC parental H69 cells
Summary of the method: as §1

[6] = system: brain carcinoma PDX GBM14-CHA; assay: PDX-derived cell culture cytotoxicity (CellTiter-Glo); settings: 120 h; PDX brain carcinoma GBM14-CHA (FIG. 3); 5 days
Method: (§2) PDX-derived cell cultures were obtained from tumors explanted from mice and isolated by mechanical and enzymatic dissociation. […] Cells were harvested and seeded in 96-wells plates at a density of 1.25 to 5×10^3 cells/well for cytotoxicity assays. Cells were incubated 48 h at 37° C. prior to addition of test molecules and vehicle (DMSO, 0.1%) at desired final concentrations. Cell viability was assessed before drugs' addition (To) and 5 days after test molecules addition by measuring ATP cell content using CellTiter-Glo® Luminescent Cell Viability Assay (Promega) according to the manufacturer's instructions. Luciferase activity was measured on a luminometer (PerkinElmer® EnVision™). Each concentration of compounds was tested in triplicate.
(§3) Viability was calculated as a percentage of ATP value compared to vehicle treated controls.
(§4) For PDX primary cell cultures, the tumour tissue was washed with PBS containing antibiotic-antimycotic and non-tumour tissue and necrotic tumour tissues were separated. The tumour tissue was transferred to a new dish and cut into 1-2 mm^3 fragments, resuspended in RPMI-1640 medium and centrifuged at 1,200 rpm for 6 min at room temperature. The pelleted material was resuspended with 15 mL of Tumour Cell Digestion Solution and incubated at 37° C. for 1 hour with agitation. Following further addition of media, centrifugation and passage through a […] cell strainer, the homogenous cell mixture was layered onto 15 mL of Ficoll-Paque PLUS in a 50 mL conical tube and centrifuged for 15 min at 1,600 rpm. The interface cells were collected, washed with media, separated by centrifugation at 1,200 rpm. The cell pellet was resuspended in serum free media supplemented with growth factors. 10,000 cells/wells were plated in a 96 well plate and incubated at 37° C., 5% CO2, 95% air and 100% relative humidity overnight. The cytotoxicity assay was conducted as above. IC50 values represent absolute IC50.

[7] = system: small cell lung carcinoma PDX SC6; assay: as above; settings: 120 h; small cell lung carcinoma PDX SC6 (FIG. 13); 5 days
Method: as §2, §3, §4

- IC50 [3]: 1.87 µM
SMILES: O=c1cc(-c2ccc(CCCC[P+](c3ccccc3)(c3ccccc3)c3ccccc3)cc2)oc2c3c(ccc12)OCO3.[Br-] [SND123, 4-[4-(6-oxo-[1,3]dioxolo[4,5-h]chromen-8-yl)phenyl]butyl-triphenylphosphonium bromide]
- IC50 [1]: 1.8 µM
- IC50 [2]: 8.3 µM

SMILES: CCNC(=O)Oc1ccc2c(=O)cc(-c3ccc(CCCC[P+](c4ccccc4)(c4ccccc4)c4ccccc4)cc3)oc2c1O.[Br-] [SND126A, 4-[4-[7-(Ethylcarbamoyloxy)-8-hydroxy-4-oxo-chromen-2-yl]phenyl]butyltriphenylphosphonium bromide]
- IC50 [4]: 17.6 µM
- IC50 [5]: 3.63 µM

SMILES: COc1c(O)ccc2c(=O)cc(-c3ccc(CCCC[P+](c4ccccc4)(c4ccccc4)c4ccccc4)cc3)oc12.[Br-] [SND140, (4-(4-(7-hydroxy-8-methoxy-4-oxo-4H-chromen-2-yl)phenyl)butyl)triphenylphosphonium bromide]
- IC50 [6]: 6.47 µM
- IC50 [7]: 7.02 µM
